Reference: article PMC4595200 (BMC Plant Biology, 2015)

Target: T1, truncated AtAPC2 (N-terminally truncated AtAPC2) (Arabidopsis thaliana, UniProt Q9FI43)
T1 construct: gene APC2; transmembrane carrier domain from residue 164 to C-terminus, EF-hand N-terminal domain removed, N-terminal His tag (pET16b), E. coli Rosetta 2 inclusion bodies, reconstituted in liposomes
T1 sequence (Q9FI43 164-487): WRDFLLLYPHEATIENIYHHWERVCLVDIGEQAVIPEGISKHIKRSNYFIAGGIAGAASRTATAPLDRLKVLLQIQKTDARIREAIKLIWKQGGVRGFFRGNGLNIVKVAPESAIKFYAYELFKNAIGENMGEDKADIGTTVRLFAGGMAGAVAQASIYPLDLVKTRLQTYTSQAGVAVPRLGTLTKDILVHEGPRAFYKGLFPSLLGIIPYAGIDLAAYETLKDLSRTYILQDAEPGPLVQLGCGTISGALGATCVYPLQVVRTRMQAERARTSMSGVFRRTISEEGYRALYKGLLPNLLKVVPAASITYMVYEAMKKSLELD
Assay: radiolabelled uptake into proteoliposomes
Format: biochemical
Details: pH 7.5, 30 °C, labelled compound

Compound | radiolabelled uptake into proteoliposomes (ADP import / ATP export (ATP-loaded), 5 min) | radiolabelled uptake into proteoliposomes (ATP import / Pi export (Pi-loaded), 50 μM ATP)
Nc1ncnc2c1ncn2[C@@H]1O[C@H](COP(=O)(O)OP(=O)(O)O)[C@@H](O)[C@H]1O [ADP] | ADP/ATP exchange of both, full-length and truncated, AtAPC2 variants remained more or less unaltered | 
Nc1ncnc2c1ncn2[C@@H]1O[C@H](COP(=O)(O)OP(=O)(O)OP(=O)(O)O)[C@@H](O)[C@H]1O [ATP] |  | ATP uptake measurements verified that truncated AtAPC2 is functional
